Experimental data taken from patent US4137322A, “ML-236B carboxylic acid derivatives and their use as antihyperlipemic agents” (Sankyo Company Limited, priority 1976, dated 1979).
Like-named read-outs stand apart in the source and are kept apart here.

Experiments:
Acute toxicity in mouse = conditions: in vivo, ip
Description: (§1) Acute toxicity of ML-236B carboxylic acid derivatives (I) was determined in oral and intraperitoneal administration (both as an aqueous suspension).

cholesterol biosynthesis = test: Inhibition of cholesterol biosynthesis; type: biochemical
[1] = molecular target: T1, 3-hydroxy-3-methylglutaryl-CoA reductase (Rattus norvegicus, UniProt P51639); test: Inhibition of 3-hydroxy-3-methylglutaryl-CoA reductase; type: biochemical
T1 construct: Employed as an enzyme microsome of rat liver; from tissue; host or cells: rat liver microsomes
T1 sequence (P51639 1-887): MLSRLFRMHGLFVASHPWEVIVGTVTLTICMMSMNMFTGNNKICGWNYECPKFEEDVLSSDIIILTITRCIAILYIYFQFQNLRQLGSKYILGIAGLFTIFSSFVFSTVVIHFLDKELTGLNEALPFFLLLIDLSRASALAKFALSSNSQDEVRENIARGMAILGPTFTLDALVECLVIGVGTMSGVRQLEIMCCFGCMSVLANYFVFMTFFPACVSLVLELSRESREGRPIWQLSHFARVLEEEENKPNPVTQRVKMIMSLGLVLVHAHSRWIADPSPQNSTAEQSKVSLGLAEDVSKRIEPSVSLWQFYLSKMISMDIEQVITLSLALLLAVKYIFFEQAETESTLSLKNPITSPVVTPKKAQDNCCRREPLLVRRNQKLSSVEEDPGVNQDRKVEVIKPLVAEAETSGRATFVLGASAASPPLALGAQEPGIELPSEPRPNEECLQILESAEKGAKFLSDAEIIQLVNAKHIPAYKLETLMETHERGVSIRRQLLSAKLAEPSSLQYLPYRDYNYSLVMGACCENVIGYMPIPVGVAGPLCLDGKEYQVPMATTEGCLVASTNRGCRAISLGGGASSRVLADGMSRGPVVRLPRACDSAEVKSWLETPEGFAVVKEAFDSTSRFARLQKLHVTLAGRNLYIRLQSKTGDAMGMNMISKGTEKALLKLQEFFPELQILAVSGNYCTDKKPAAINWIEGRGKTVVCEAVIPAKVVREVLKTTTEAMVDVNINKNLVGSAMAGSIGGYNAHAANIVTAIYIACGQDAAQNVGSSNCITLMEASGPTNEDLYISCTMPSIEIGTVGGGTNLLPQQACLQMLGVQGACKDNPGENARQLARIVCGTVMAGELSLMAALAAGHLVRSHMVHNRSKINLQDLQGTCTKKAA
From the text: Inhibition activity of cholesterol biosynthesis [determined according to the method disclosed in J. Biol. Chem., 234, 2835 (1959)] and inhibition activity on 3-hydroxy-3-methylglutaryl-CoA reductase [determined according to the method disclosed in Anal. Biochem., 31, 383 (1969)] of these compounds are summarized in Table 1.
*Employed as an enzyme microsome of rat liver.

[2] = system: total serum cholesterol in beagle dogs; test: Lowering activity of blood cholesterol in beagle dogs; type: in vivo, beagle dog; conditions: Canis lupus familiaris, po, 120 h, read-out: Lowering rate of total serum cholesterol
From the text: The test was to orally administer an encapsulated test sample twice per day, in the morning (9 o'clock) and evening (16 o'clock), for continuous 5 days, collect a blood sample in the morning after 5 days and determine a total cholesterol level in serum by a conventional method.

Acute toxicity in rat = conditions: in vivo, po
Description: as §1

[3] = system: serum cholesterol in rats; test: Lowering activity of blood cholesterol in rats; type: in vivo, rat; conditions: Rattus norvegicus, po, 18 h, read-out: Lowering rate of serum cholesterol
Description: A lowering activity of blood cholesterol in rats was assayed on rats. The test was to orally administer a test sample suspended in water, collect a blood sample after 18 hours and determine a cholesterol level in serum by a conventional method.

[4] = LD50, mouse, aqueous suspension
[5] = enzyme: microsome of rat liver, read-out: Concentration to inhibit 50% of 3-hydroxy-3-methylglutaryl-CoA reductase (converted)
[6] = beagle dogs, 25 mg/kg/day, oral twice per day, 5 days
[7] = beagle dogs, 100 mg/kg/day, oral twice per day, 5 days
[8] = rats, 5 mg/kg, oral, after 18 hours
[9] = rats, 20 mg/kg, oral, after 18 hours

Row | Structure (SMILES) | LD50 (Acute toxicity in mouse) | Concentration to inhibit 50% of cholesterol biosynthesis (cholesterol biosynthesis) | IC50 [1] | inhibition in vivo at 25 mg/kg/day [2] | inhibition in vivo at 100 mg/kg/day [2] | LD50 (Acute toxicity in rat) | inhibition in vivo at 5 mg/kg [3] | inhibition in vivo at 20 mg/kg [3] | LD50 (Acute toxicity in mouse; [4]) | IC50 [1, 5] | inhibition in vivo at 25 mg/kg/day [2, 6] | inhibition in vivo at 100 mg/kg/day [2, 7] | LD50 (Acute toxicity in rat; LD50, rat, aqueous suspension) | inhibition in vivo at 5 mg/kg [3, 8] | inhibition in vivo at 20 mg/kg [3, 9]
1 | CCC(C)C(=O)OC1CCC=C2C=CC(C)C(CCC(O)CC(O)CC(=O)OCc3ccc(OC)cc3)C21 (stereo not drawn) [4-methoxybenzyl, 4-Methoxybenzyl ML-236B carboxylate] | > 500 mg/kg | 0.01 µg/mL | 378 nM | 26% | 36% | > 2000 mg/kg | 17% | 20% |  |  |  |  |  |  | 
2 | CCC(C)C(=O)OC1CCC=C2C=CC(C)C(CCC(O)CC(O)CC(=O)OCC(=O)c3ccccc3)C21 (stereo not drawn) [phenacyl, Phenacyl ML-236B carboxylate] |  | 0.01 µg/mL |  |  |  |  |  |  | > 500 mg/kg | 380 nM | 32% | 42% | > 2000 mg/kg | 14% | 21%
3 | CCOC(=O)CC(O)CC(O)CCC1C(C)C=CC2=CCCC(OC(=O)C(C)CC)C21 (stereo not drawn) [ethyl, Ethyl ML-236B carboxylate] | > 500 mg/kg | 0.01 µg/mL | 366 nM | 13% | 19% | > 2000 mg/kg | 19% | 25% |  |  |  |  |  |  | 
4 | CCC(C)C(=O)OC1CCC=C2C=CC(C)C(CCC(O)CC(O)CC(=O)OCC(=O)c3ccc(C)cc3)C21 (stereo not drawn) [4-methylphenacyl, 4-Methylphenacyl ML-236B carboxylate] |  | 0.01 µg/mL |  |  |  |  |  |  | > 500 mg/kg | 370 nM | 20% | 33% | > 2000 mg/kg | 14% | 19%
5 | CCC(C)C(=O)OC1CCC=C2C=CC(C)C(CCC(O)CC(O)CC(=O)OCc3ccccc3)C21 (stereo not drawn) [benzyl, Benzyl ML-236B carboxylate] |  | 0.01 µg/mL |  |  |  |  |  |  | > 500 mg/kg | 401 nM | 24% | 38% | > 2000 mg/kg | 14% | 24%
6 | CCC(C)C(=O)OC1CCC=C2C=CC(C)C(CCC(O)CC(O)CC(=O)OC)C21 (stereo not drawn) [methyl, Methyl ML-236B carboxylate] | > 500 mg/kg | 0.01 µg/mL | 355 nM | 12% | 26% | > 2000 mg/kg | 18% | 23% |  |  |  |  |  |  | 
7 | CCC(C)C(=O)OC1CCC=C2C=CC(C)C(CCC(O)CC(O)CC(=O)OCC(=O)c3ccc(Br)cc3)C21 (stereo not drawn) [4-bromophenacyl, 4-Bromophenacyl ML-236B carboxylate] |  | 0.01 µg/mL |  |  |  |  |  |  | > 500 mg/kg | 330 nM | 21% | 30% | > 2000 mg/kg | 17% | 24%
8 | CCC(C)C(=O)OC1CCC=C2C=CC(C)C(CCC(O)CC(O)CC(=O)OC(C)C)C21 (stereo not drawn) [isopropyl, Isopropyl ML-236B carboxylate] |  | 0.04 µg/mL |  |  |  |  |  |  | > 500 mg/kg | 355 nM | 19% | 30% | > 2000 mg/kg | 16% | 25%
9 | CCCCCCOC(=O)CC(O)CC(O)CCC1C(C)C=CC2=CCCC(OC(=O)C(C)CC)C21 (stereo not drawn) [n-hexyl, Hexyl ML-236B carboxylate] |  | 0.02 µg/mL |  |  |  |  |  |  | > 500 mg/kg | 365 nM | 17% | 29% | > 2000 mg/kg | 14% | 23%
10 | CCCCOC(=O)CC(O)CC(O)CCC1C(C)C=CC2=CCCC(OC(=O)C(C)CC)C21 (stereo not drawn) [n-butyl, n-Butyl ML-236B carboxylate] |  | 0.02 µg/mL |  |  |  |  |  |  | > 500 mg/kg | 344 nM | 32% | 46% | > 2000 mg/kg | 20% | 26%
11 | CCC(C)C(=O)OC1CCC=C2C=CC(C)C(CCC(O)CC(O)CC(=O)OCc3ccc(C)cc3)C21 (stereo not drawn) [4-methylbenzyl, 4-Methylbenzyl ML-236B carboxylate] |  | 0.01 µg/mL |  |  |  |  |  |  | > 500 mg/kg | 390 nM | 30% | 41% | > 2000 mg/kg | 13% | 26%
12 | CCC(C)C(=O)OC1CCC=C2C=CC(C)C(CCC(O)CC(O)CC(=O)OCc3ccc(Cl)cc3)C21 (stereo not drawn) [4-chlorobenzyl, 4-Chlorobenzyl ML-236B carboxylate] |  | 0.01 µg/mL |  |  |  |  |  |  | > 500 mg/kg | 375 nM | 20% | 36% | > 2000 mg/kg | 15% | 21%
13 | CCC(C)C(=O)OC1CCC=C2C=CC(C)C(CCC3CC(O)CC(=O)O3)C21 (stereo not drawn) [ML-236B] |  | 0.01 µg/mL |  |  |  |  |  |  |  | 12300 nM | < 5% | 19% |  | 11.2% | 17.1%
